Test results published in ChEMBL document CHEMBL3886420, “Substituted pyrimidine compounds and their use as SYK inhibitors” (2015).

Molecular target: Tyrosine-protein kinase SYK (Homo sapiens, UniProt P43405)
Assay: Inhibition Assay: Compounds of the invention were initially diluted to 10 mM in 100% DMSO (CALBIOCHEM) for storage and made into kinase buffer solution to create a compound concentration ranging from 1 uM and 10 uM. Serial dilutions of compounds of the invention were dispensed into a 96-well plate (GREINER BIOSCIENCES) at 6 uL each. Purified full-length human SYK (CARNA BIOSCIENCES) were diluted …

IC50: 45.6 nM
Compound: CCOC(=O)n1cc(C(C)=O)c2cc(Nc3nccc(-n4cc(CN5C[C@H](O)CO5)c(C)n4)n3)ccc21
